Test results from patent publication US20190359653A1, “SELECTIVE PEPTIDE INHIBITORS OF FRIZZLED” (Genentech, Inc., priority 2016, published 2019).
“Also recorded” adds a separate entry of the source. Peptide text beside a SMILES is read from it. * marks the point of attachment. 5FAM = O=C1OC2(c3ccc(O)cc3Oc3cc(O)ccc32)c2ccc(C(=O)*)cc21

Key:
[1] = test system: FZD CRD-Fc; test: binding of 5FAM peptides to the FZD CRD-Fc panel; details: any members of the FZD CRD family
Description: Control experiments using 5FAM-Fz7-21S were performed in parallel. 5FAM-Fz7-21 or 5FAM-Fz721S was incubated with each of the aforementioned FZD CRD-Fcs overnight at 4° C. in PBS and resolved via SEC.
In FIGS. 3A-3I, 5FAM-Fz7-21 or 5FAM-Fz7-21S (50 nM in PBS) was incubated with increasing concentration of FZD CRD-Fc (2-fold serial dilutions), and fluorescence intensity was measured using either a Monolith NT.115 or NT.115Pico instrument (NanoTemper Technologies). EC50 values represent the 95% confidence interval of at least three independent experiments, excepting hFZD1 CRD-Fc+5FAM-Fz7-21S, which was done twice. EC50 ovalues were calculated with Prism Graphpad using the Log(agonist) vs. response [variable slope (four parameters) function: Y=Bottom+(Top-Bottom)/(1+10^((Log EC−X)*HillSlope))]. Plotted values represent the mean±s.e.m.

[2] = test system: FZD CRD-Fc proteins; test: fluorescence size-exclusion chromatography (FSEC) with FZD CRD-Fc proteins; format: binding; details: 1 μM peptide, 250 nM FZD CRD-Fc, overnight at 4° C.; FZD1, FZD2 and FZD7 CRD-Fc
Description: (§1) Fluorescence size-exclusion chromatography (FSEC) experiments were run using an AKTA FPLC system (General Electric Company) with UNICORN software package (version 5.31). Samples were resolved using a SEC3000 or SEC2000 (Phenomenex; Torrence, Calif.) column at 0.5 mL/min in phosphate buffer. Fluorescence was monitored using a FP-2020 Plus fluorescence detector (Jasco Analytical Instruments, Easton, Md.) in normal mode (excitation/emission, […]; gain=100; STD=32). All samples were prepared with a final DMSO concentration of 1% and incubated overnight at 4° C. prior to sample separation. FZD CRD-Fc samples were kept at ˜250 nM in the presence of excess 5FAM labeled peptide (1 μM). […]
Selective targeting of the FZD7 receptor subclass was also observed chromatographically. […] See FIGS. 4A and 4B, which provide representative fluorescence traces of 1 μM 5FAM-Fz7-21 and 1 μM 5FAM-Fz7-21S, respectively, incubated with various FZD CRD-Fc proteins (250 nM) overnight at 4° C. prior to analysis by FSEC. […] In FIG. 24A, molecular weight (MW) standards analyzed by UV absorption were plotted as a function of elution volume (Ve) over void volume (Vo). […] Measured values represent the mean±standard deviation (SD) of three independent experiments. […] Binding to recombinant FZD3 and 6 CRDs could not be assessed due to challenges with the expression of these proteins. […]

[3] = test system: human sFRP1, sFRP2, sFRP3, sFRP4, or sFRP5; test: FSEC with secreted Frizzled-related proteins; format: binding; details: sFRP ~250 nM, peptide 10 μM
Description: as §1, with “μM). Human secreted Frizzled-related proteins were maintained at ˜250 nM in the presence of excess 5FAM-labeled peptide (10 μM).” for “μM).”
For FIGS. 4C and 5C, values represent the mean±s.e.m. of three independent experiments. […] Samples were resolved using a SEC3000 column (Phenomenex; Torrence, Calif.) at 0.5 mL/min in phosphate buffer saline (PBS) and fluorescence was monitored with an FP-2020 Plus fluorescence detector (Jasco Analytical Instruments, Easton, Md.) using normal mode (excitation/emission […]); gain=100; STD=32. […] Molecular weights were determined by standards (BioRad catalogue number, 151-1901) run prior to sample runs.

[4] = molecular target: T1, Wnt5a binding to FZD4 CRD (Homo sapiens, UniProt Q9ULV1); test: ELISA of biotinylated Wnt5a binding to FZD CRD-Fc; details: peptide 0-10 μM
T1 construct: hFZD4 CRD-Fc (cat no. 5847-FZ); purchased R&D systems 5847-FZ
T1 sequence (Q9ULV1 40-161 limits assumed): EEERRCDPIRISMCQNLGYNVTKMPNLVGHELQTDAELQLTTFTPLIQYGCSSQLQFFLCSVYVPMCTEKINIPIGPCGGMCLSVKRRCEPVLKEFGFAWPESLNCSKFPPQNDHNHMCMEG
Description: (§2) 384-well Maxisorp plates (cat. no. 464718; Thermo Scientific) were incubated with 30 μL of Neutravidin (cat. no. 31000, Thermo Scientific; 2 μg/mL in PBS) overnight at 4° C. Plates were then washed with PBST and blocked with PBS/1% BSA for 1 hour at RT and then washed with PBST prior to further processing. The binding assay was conducted in 96 well plates (cat no. 83007-374; VWR) which were blocked with PBS/1% BSA overnight at 4° C. hFZD4 CRD-Fc or hFZD7 CRD-Fc (63 ng/mL) were incubated with either Bio-Wnt3a (25 ng/mL) or Bio-Wnt5a (50 ng/mL) in the presence of 4-fold serial dilutions of the indicated peptide in PBS overnight at 4° C. All assays included hFZD9 CRD-mIgG2A protein as a negative control. hFZD7 CRD-His was suspended in 150 mM NaCl, 50 mM Tris-HCl at pH 7.5 and when used in assays an equal volume of the same buffer control was used. The binding assay mixtures were transferred to the Neutravidin coated plates and incubated for ˜1 h at RT. The wells were then washed with PBST, incubated with anti-hIgG1-HRP (1:10,000 suspended in PBS supplemented with 1% BSA; cat. no. A18817, Invitrogen), and washed again with PBST. The signal was developed with the addition of TMB reagent (following the manufacturer's recommendation; KPL; 50-76-00) for 15 min prior to the addition of an equal volume of 1 M phosphoric acid for 10 min Absorbance was measured at 450 nm using a Tekan M1000 plate reader. Values were collected and plotted using Prism Graphpad software. All assay conditions using peptides were at 1% DMSO final concentration. […]
(§3) Briefly, the assays were performed using (a) FZD1 CRD-Fc, (b) FZD2 CRD-Fc, (c) FZD4 CRD-Fc, or (d) FZD7 CRD-Fc as the capture reagent and biotinylated-Wnt5a as the detection reagent. […] Streptavidin-HRP was used to detect biotinylated Wnt5a, and HRP activity was measured as a function of chemiluminescence detection at 428 nm. […]

[5] = test system: Wnt3a-mediated β-catenin signaling in HEK293-TB cells; format: cell-based
[6] = test system: Wnt3a-mediated stabilization of β-catenin in mouse L cells; test: in-cell western of β-catenin protein in L cells treated with Wnt3a; format: cell-based
Description: DMSO controls were performed in parallel. Following treatment, the L-cells were fixed, permeabilized, probed with fluorescently labeled anti-β-catenin antibodies, and observed via in-cell western assay (i.e., as described in Hannoush, R. N. (2008) PLoS One 3, e3498) to assess β-catenin protein levels. The values in Table 7 are averages of at least 3 independent replicates, ±standard deviation.

[7] = molecular target: T2, Wnt3a binding to FZD4 CRD (Homo sapiens, UniProt Q9ULV1); test: ELISA of biotinylated Wnt3a binding to FZD CRD-Fc; details: peptide 0-10 μM
T2 construct: hFZD4 CRD-Fc (cat no. 5847-FZ); purchased R&D systems 5847-FZ
T2 sequence (Q9ULV1 40-161 limits assumed): T1 sequence (Q9ULV1 40-161 limits assumed)
Description: 384-well Maxisorp plates (cat. no. 464718; Thermo Scientific) were incubated with 30 μL of Neutravidin (cat. no. 31000, Thermo Scientific; 2 μg/mL in PBS) overnight at 4° C. Plates were then washed with PBST and blocked with PBS/1% BSA for 1 hour at RT and then washed with PBST prior to further processing. The binding assay was conducted in 96 well plates (cat no. 83007-374; VWR) which were blocked with PBS/1% BSA overnight at 4° C. hFZD4 CRD-Fc or hFZD7 CRD-Fc (63 ng/mL) were incubated with either Bio-Wnt3a (25 ng/mL) or Bio-Wnt5a (50 ng/mL) in the presence of 4-fold serial dilutions of the indicated peptide in PBS overnight at 4° C. All assays included hFZD9 CRD-mIgG2A protein as a negative control. hFZD7 CRD-His was suspended in 150 mM NaCl, 50 mM Tris-HCl at pH 7.5 and when used in assays an equal volume of the same buffer control was used. The binding assay mixtures were transferred to the Neutravidin coated plates and incubated for ˜1 h at RT. The wells were then washed with PBST, incubated with anti-hIgG1-HRP (1:10,000 suspended in PBS supplemented with 1% BSA; cat. no. A18817, Invitrogen), and washed again with PBST. The signal was developed with the addition of TMB reagent (following the manufacturer's recommendation; KPL; 50-76-00) for 15 min prior to the addition of an equal volume of 1 M phosphoric acid for 10 min Absorbance was measured at 450 nm using a Tekan M1000 plate reader. Values were collected and plotted using Prism Graphpad software. All assay conditions using peptides were at 1% DMSO final concentration.
Without being bound be theory, the substantial conformational change induced by dFz7-21 on hFZD7 CRD, as exemplified by the altered geometry of the lipid binding cavity, may facilitate the accommodation of two Wnt molecules simultaneously onto the hFZD7 CRD dimer (FIG. 4e-h).
Similar results were observed using Wnt3a. […] Binding of Wnt3a to FZD1 CRD, FZD2 CRD, and FZD7 CRD increased in the presence of dFz7-21 at concentrations below about 0.5 μM (FIG. 22E), with the most binding seen in the presence of 0.01 μM-0.05 μM dFz7-21. […] Fz7-21S had no effect on Binding of Wnt3a to any of the FZD CRDs tested (FIG. 22F).

[8] = test system: receptor-independent β-catenin signaling in 6-BIO-treated HEK293-TB cells; test: epistasis study, HEK293-TB cells stimulated with 6-BIO; format: cell-based; details: 10 μM 6-BIO, 6 hr; FIG. 2E
[9] = molecular target: T3, hFZD7 CRD-His (Homo sapiens, UniProt O75084); test: SEC-MALS of hFZD7 CRD-His incubated with peptide; format: binding
T3 construct: hFZD7 CRD-His [Gln33-Gly168] was expressed as a secreted protein in Trichoplusia ni cells expressing EndoH; made in house; host or cells: Trichoplusia ni cells expressing EndoH, treated with Kifunensine (baculovirus)
Description: Samples were resolved by a Superdex S200 3.2/300 column (General Electric Healthcare Life Science, Pittsburgh, Pa.; cat. no. 28990946) at 0.15 mL/min in 150 mM NaCl, 50 mM Tris-HCl pH 7.5 buffer with 1% DMSO final concentration. Runs were performed on a 1260 infinity HPLC (Agilent Technology, Santa Clara, Calif.) connected to a Dawn Heleos-II multi-angle static Light Scattering (MALS) detector and a Optilab T-rEX differential Refractive Index (dRI) detector (Wyatt Technologies, Santa Barbara, Calif.).
Samples were resolved by a Superdex S200 3.2/300 column (General Electric Healthcare Life Science, Pittsburgh, Pa.; 28990946) at a 0.15 mL/min in 150 mM NaCl, 50 mM Tris-HCl pH 7.5 buffer with 1% DMSO final concentration. Column was connected to a 1260 infinity HPLC (Agilent Technology, Santa Clara, Calif.) connected to a Dawn Heleos-II Multi-Angle static Light Scattering (MALS) detector and the Optilab T-rEX differential Refractive Index (dRI) detectors (Wyatt Technologies, Santa Barbara, Calif.).

[10] = test system: Wnt5a binding to FZD1 CRD, FZD2 CRD, and FZD7 CRD; test: ELISA of biotinylated Wnt5a binding to FZD CRD-Fc; details: FIGS. 22A, 22B
Description: as §2, §3

For `CSCC[C@H](NC(=O)[C@@H](NC(=O)[C@H](Cc1c[nH]cn1)NC(=O)[C@H](CO)NC(=O)[C@H](Cc1c[nH]c2ccccc12)NC(=O)[C@H](Cc1ccccc1)NC(=O)[C@H](CCC(=O)O)NC(=O)[C@H](CC(C)C)NC(=O)[C@H](CC(=O)O)NC(=O)[C@H](CC(=O)O)NC(=O)[C@H](CO)NC(=O)[C@@H]1CCCN1C(=O)[C@H](CC(C)C)NC(=O)c1ccc2c(c1)C(=O)OC21c2ccc(O)cc2Oc2cc(O)ccc21)C(C)C)C(=O)N[C@@H](Cc1ccc(O)cc1)C(N)=O` [5FAM-Fz7-21S] (5FAM-LPSDDLEFWSHVMY-NH2; N-terminus and C-terminus assumed), the “binding” value [1] was “no detectable binding”, the “complex with FZD CRD-Fc resolved by FSEC” value [2] was “no complex was observed” and the “binding to sFRPs by FSEC” value [3] was “not found to bind”.
In the case of LPSDDLEFWCHVMY [Fz7-21], the “effect on Wnt5a binding to FZD4 CRD” value [4] is reported as “did not show any effect; also recorded: no such effect”, the “HEK293S-TB % Remaining Activity” value ([5]; measured at 100 μM peptide, mean ± standard deviation) is reported as 5.15 ± 2.88% and the IC50 ([5]; read-out: IC50, Wnt3a-stimulated β-catenin signaling) is reported as 90 to 100 nM. For the same compound, the “L CELLS % Remaining Activity” value ([6]; measured at 11.11 μM of peptide) was 50.98^G ± 3.76%, the “Wnt3a-mediated stabilization of β-catenin” value ([6]; mouse L cells) was “blocked” and the IC50 ([6]; β-catenin by immunofluorescence, Wnt3a 2.5 nM, 5 hours, mean ± standard deviation) was 50 ± 30 nM. For the same compound, the “effect on Wnt3a binding to FZD4 CRD” value [7] was “did not show any effect; also recorded: Neither Fz7-21 nor dFz7-21 had any effect”, the “inhibition of Wnt signaling in 6-BIO-treated cells” value [8] was “Neither Fz7-21 nor Fz7-21S inhibited” and the “ΔMW (kDa)” value ([9]; 1:5, relative to the DMSO control) was 6.4 kDa. The “homodimerization or oligomerization of hFZD7 CRD-His” value ([9]; concentration-dependent) was “induced homodimerization or oligomerization”, the “MW (kDa)” value ([9]; hFZD7 CRD 15.8 μM, protein:peptide 1:1, 2 h) was 21.9 kDa and the “MW (kDa)” value ([9]; protein:peptide 1:5) was 27.3 kDa. The “MW (kDa)” value ([9]; protein:peptide 1:10) was 32 kDa and the “peptide concentration with the most Wnt5a binding” value [10] was 0.1 µM.
